Assay [1] deals with antibodies in sera from SARS patients (sera 1a, 1b, 2, 6, 37, 62, London, SARS-yellow, SARS-green). In kind it is binding, human. On the set-up: Binding of serum 6 to linear peptides of protein X1 of SARS-CoV Urbani / Binding of serum 37 to linear peptides of protein X1 of SARS-CoV Urbani / Binding of serum 6 to looped/cyclic peptide (PEPSCAN-ELISA) / Binding of serum 37 to looped/cyclic peptide (PEPSCAN-ELISA) / Binding of serum 37 to looped/cyclic peptides of protein X1 of SARS-CoV Urbani / Binding of serum 6 to linear peptides of protein X2 / Binding of serum 37 to linear peptides of protein X2 / Binding of serum 37 to looped/cyclic peptides of protein X2 of SARS-CoV Urbani / Binding of serum 6 to linear peptides of protein M of SARS-CoV Urbani / Binding of serum 37 to linear peptides of protein M of SARS-CoV Urbani / Binding of serum 6 to looped/cyclic peptides of protein M of SARS-CoV Urbani / Binding of serum 37 to looped/cyclic peptides of protein M of SARS-CoV Urbani / Binding of serum 6 to linear peptides of protein X3 of SARS-CoV Urbani / Binding of serum 37 to linear peptides of protein X3 of SARS-CoV Urbani / Binding of serum 37 to looped/cyclic peptides of protein X3 of SARS-CoV Urbani / Binding of serum 6 to linear peptides of protein X4 of SARS-CoV Urbani / Binding of serum 37 to linear peptides of protein X4 of SARS-CoV Urbani / Binding of serum 37 to looped/cyclic peptides of protein X4 of SARS-CoV Urbani / Binding of serum 6 to linear peptides of protein X5 of SARS-CoV Urbani / Binding of serum 37 to linear peptides of protein X5 of SARS-CoV Urbani / Binding of serum 37 to looped/cyclic peptides of protein X5 of SARS-CoV Urbani / Binding of serum 6 to linear peptides of protein N of SARS-CoV Urbani / Binding of serum 37 to linear peptides of protein N of SARS-CoV Urbani / Binding of serum 6 to linear peptide (PEPSCAN-ELISA) / Binding of serum 1a to looped/cyclic peptides of protein N of SARS-CoV Urbani / Binding of serum 1b to looped/cyclic peptides of protein N of SARS-CoV Urbani / Binding of serum 2 to looped/cyclic peptides of protein N of SARS-CoV Urbani / Binding of serum 6 to looped/cyclic peptides of protein N of SARS-CoV Urbani / Binding of serum 37 to looped/cyclic peptides of protein N of SARS-CoV Urbani / Binding of serum 62 to looped/cyclic peptides of protein N of SARS-CoV Urbani / Binding of serum London to looped/cyclic peptides of protein N of SARS-CoV Urbani / Binding of serum SARS-green to looped/cyclic peptides of protein N of SARS-CoV Urbani: unit not given here.

The test system of assay [2] is control sera (pooled serum of ten healthy LUMC hospital workers; commercial negative donor pooled serum from the Dutch bloodbank). The class given is binding, human. Details: Binding of Control serum LUMC to linear peptides / Binding of Control serum Blood-bank to linear peptides / Binding of Control serum LUMC to looped peptides / Binding of Control Serum Blood-Bank to Looped peptides / Binding of Control serum LUMC to linear peptides of the protein M of SARS-CoV Urbani / Binding of Control serum Blood-bank to linear peptides of the protein M of SARS-CoV Urbani / Binding of Control serum LUMC to looped peptides of the protein M of SARS-CoV Urbani / Binding of Control Serum Blood-Bank to Looped peptides of the protein M of SARS-CoV Urbani: unit not given here.

For assay [3], the system named is rabbit serum obtained by immunizing a rabbit with the SARS-CoV strain Frankfurt 1. In kind it is binding. Details: Binding of a rabbit serum to linear peptides / Binding of a rabbit serum to looped peptides / Rabbit serum linear peptides / Rabbit serum looped peptides / Binding of a rabbit serum to linear peptides of protein N of SARS-CoV Urbani (Rabbit serum linear peptides) / Binding of a rabbit serum to looped/cyclic peptides of protein N of SARS-CoV Urbani (Rabbit serum looped peptides): unit not given here.

With SPKFTTSLSLHKLLQ, in assay [1], the “Binding of serum 1a to linear peptides of protein X2” value was 0.6, the “Binding of serum 1a to looped/cyclic peptides of protein X2 of SARS-CoV Urbani” value was 0.5, the “Binding of serum 1b to linear peptides of protein X2” value is 0.4 and the “Binding of serum 1b to looped/cyclic peptides of protein X2 of SARS-CoV Urbani” value is given as 0.5. Further, in assay [1], the “Binding of serum 2 to linear peptides of protein X2” value stood at 0.4, the “Binding of serum 2 to looped/cyclic peptides of protein X2 of SARS-CoV Urbani” value is 0.3, the “Binding of serum 6 to linear peptides of protein X2” value was 0.4 and the “Binding of serum 6 to looped/cyclic peptides of protein X2 of SARS-CoV Urbani” value is recorded as 0.4. Moreover, in assay [1], the “Binding of serum 37 to linear peptides of protein X2” value was determined as 0.5, the “Binding of serum 37 to looped/cyclic peptides of protein X2 of SARS-CoV Urbani” value is listed as 0.3, the “Binding of serum 62 to linear peptides of protein X2” value is recorded as 0.5 and the “Binding of serum 62 to looped/cyclic peptides of protein X2 of SARS-CoV Urbani” value came to 0.5. Moreover, in assay [1], the “Binding of serum London to linear peptides of protein X2” value came to 0.4, the “Binding of serum London to looped/cyclic peptides of protein X2 of SARS-CoV Urbani” value was determined as 0.2, the “Binding of serum SARS-green to linear peptides of protein X2” value is recorded as 0.5 and the “Binding of serum SARS-green to looped/cyclic peptides of protein X2 of SARS-CoV Urbani” value is given as 0.2. Moreover, in assay [1], the “Binding of serum SARS-yellow to linear peptides of protein X2” value stood at 0.3 and the “Binding of serum SARS-yellow to looped/cyclic peptides of protein X2 of SARS-CoV Urbani” value is on record as 0.3. For the same sequence, in assay [2], the “Binding of Control Serum Blood-Bank to Looped peptides” value is reported as 0.5, the “Binding of Control serum Blood-bank to linear peptides” value is reported as 0.5, the “Binding of Control serum LUMC to linear peptides” value is given as 0.3 and the “Binding of Control serum LUMC to looped peptides” value is recorded as 0.6. Moreover, in assay [3], the “Binding of a rabbit serum to linear peptides” value is 0.3 and the “Binding of a rabbit serum to looped peptides” value is recorded as 0.5.

With SPKLFIRQEEVQQEL, in assay [1], the “Binding of serum 1a to linear peptides of protein X4 of SARS-CoV Urbani” value is listed as 0.7, the “Binding of serum 1a to looped/cyclic peptides of protein X4 of SARS-CoV Urbani” value was 0.8, the “Binding of serum 1b to linear peptides of protein X4 of SARS-CoV Urbani” value was determined as 0.5 and the “Binding of serum 1b to looped/cyclic peptides of protein X4 of SARS-CoV Urbani” value was determined as 0.6. In assay [1], the “Binding of serum 2 to linear peptides of protein X4 of SARS-CoV Urbani” value amounted to 0.3, the “Binding of serum 2 to looped/cyclic peptides of protein X4 of SARS-CoV Urbani” value came out at 0.7, the “Binding of serum 6 to linear peptides of protein X4 of SARS-CoV Urbani” value worked out at 0.4 and the “Binding of serum 6 to looped/cyclic peptides of protein X4 of SARS-CoV Urbani” value was 0.6. In assay [1], the “Binding of serum 37 to linear peptides of protein X4 of SARS-CoV Urbani” value was 0.7, the “Binding of serum 37 to looped/cyclic peptides of protein X4 of SARS-CoV Urbani” value worked out at 0.8, the “Binding of serum 62 to linear peptides of protein X4 of SARS-CoV Urbani” value is 0.7 and the “Binding of serum 62 to looped/cyclic peptides of protein X4 of SARS-CoV Urbani” value was 0.6. Further, in assay [1], the “Binding of serum London to linear peptides of protein X4 of SARS-CoV Urbani” value amounted to 0.7, the “Binding of serum London to looped/cyclic peptides of protein X4 of SARS-CoV Urbani” value was 0.4, the “Binding of serum SARS-green to linear peptides of protein X4 of SARS-CoV Urbani” value was found to be 0.8 and the “Binding of serum SARS-green to looped/cyclic peptides of protein X4 of SARS-CoV Urbani” value turned out to be 0.2. Further, in assay [1], the “Binding of serum SARS-yellow to linear peptides of protein X4 of SARS-CoV Urbani” value came out at 0.5 and the “Binding of serum SARS-yellow to looped/cyclic peptides of protein X4 of SARS-CoV Urbani” value is 0.5. Besides, in assay [2], the “Binding of Control Serum Blood-Bank to Looped peptides” value turned out to be 0.6, the “Binding of Control serum Blood-bank to linear peptides” value stood at 0.5, the “Binding of Control serum LUMC to linear peptides” value is 0.5 and the “Binding of Control serum LUMC to looped peptides” value is given as 0.8. For the same sequence, in assay [3], the “Rabbit serum linear peptides” value was 0.5 and the “Rabbit serum looped peptides” value amounted to 0.0.

Turning to SQIQLSLLKVTAFQH, in assay [1], the “Binding of serum 1a to linear peptides of protein X2” value is reported as 0.6, the “Binding of serum 1a to looped/cyclic peptides of protein X2 of SARS-CoV Urbani” value is 0.5, the “Binding of serum 1b to linear peptides of protein X2” value was found to be 0.5 and the “Binding of serum 1b to looped/cyclic peptides of protein X2 of SARS-CoV Urbani” value is listed as 0.5. Also, in assay [1], the “Binding of serum 2 to linear peptides of protein X2” value worked out at 0.4, the “Binding of serum 2 to looped/cyclic peptides of protein X2 of SARS-CoV Urbani” value was 0.4, the “Binding of serum 6 to linear peptides of protein X2” value is 0.5 and the “Binding of serum 6 to looped/cyclic peptides of protein X2 of SARS-CoV Urbani” value is 0.6. In assay [1], the “Binding of serum 37 to linear peptides of protein X2” value is on record as 0.5, the “Binding of serum 37 to looped/cyclic peptides of protein X2 of SARS-CoV Urbani” value is recorded as 0.4, the “Binding of serum 62 to linear peptides of protein X2” value is given as 0.4 and the “Binding of serum 62 to looped/cyclic peptides of protein X2 of SARS-CoV Urbani” value came to 0.6. Further, in assay [1], the “Binding of serum London to linear peptides of protein X2” value worked out at 0.3, the “Binding of serum London to looped/cyclic peptides of protein X2 of SARS-CoV Urbani” value is 1.0, the “Binding of serum SARS-green to linear peptides of protein X2” value turned out to be 0.2 and the “Binding of serum SARS-green to looped/cyclic peptides of protein X2 of SARS-CoV Urbani” value was 0.2. In assay [1], the “Binding of serum SARS-yellow to linear peptides of protein X2” value was found to be 0.3 and the “Binding of serum SARS-yellow to looped/cyclic peptides of protein X2 of SARS-CoV Urbani” value came to 0.7. In assay [2], the “Binding of Control Serum Blood-Bank to Looped peptides” value was 0.6, the “Binding of Control serum Blood-bank to linear peptides” value was found to be 0.5, the “Binding of Control serum LUMC to linear peptides” value came to 0.7 and the “Binding of Control serum LUMC to looped peptides” value is 0.6. Besides, in assay [3], the “Binding of a rabbit serum to linear peptides” value is listed as 0.7 and the “Binding of a rabbit serum to looped peptides” value is on record as 0.5.

Consider SRTLSYYKLGASQRV, for which, in assay [1], the “Binding of serum 1a to linear peptides of protein M of SARS-CoV Urbani” value came to 0.8, the “Binding of serum 1a to looped/cyclic peptides of protein M of SARS-CoV Urbani” value is 0.9, the “Binding of serum 1b to linear peptides of protein M of SARS-CoV Urbani” value is recorded as 0.5 and the “Binding of serum 1b to looped/cyclic peptides of protein M of SARS-CoV Urbani” value is reported as 0.3. In addition, in assay [1], the “Binding of serum 2 to linear peptides of protein M of SARS-CoV Urbani” value is listed as 0.8, the “Binding of serum 2 to looped/cyclic peptides of protein M of SARS-CoV Urbani” value is 0.7, the “Binding of serum 6 to linear peptides of protein M of SARS-CoV Urbani” value worked out at 0.4 and the “Binding of serum 6 to looped/cyclic peptides of protein M of SARS-CoV Urbani” value stood at 0.9. In addition, in assay [1], the “Binding of serum 37 to linear peptides of protein M of SARS-CoV Urbani” value stood at 0.8, the “Binding of serum 37 to looped/cyclic peptides of protein M of SARS-CoV Urbani” value is recorded as 0.8, the “Binding of serum 62 to linear peptides of protein M of SARS-CoV Urbani” value was 0.8 and the “Binding of serum 62 to looped/cyclic peptides of protein M of SARS-CoV Urbani” value is reported as 0.7. In addition, in assay [1], the “Binding of serum London to linear peptides of protein M of SARS-CoV Urbani” value amounted to 0.3, the “Binding of serum London to looped/cyclic peptides of protein M of SARS-CoV Urbani” value came out at 0.3, the “Binding of serum SARS-green to linear peptides of protein M of SARS-CoV Urbani” value came out at 0.2 and the “Binding of serum SARS-green to looped/cyclic peptides of protein M of SARS-CoV Urbani” value is reported as 0.4. Moreover, in assay [1], the “Binding of serum SARS-yellow to linear peptides of protein M of SARS-CoV Urbani” value worked out at 0.1 and the “Binding of serum SARS-yellow to looped/cyclic peptides of protein M of SARS-CoV Urbani” value is listed as 0.8. Also, in assay [2], the “Binding of Control Serum Blood-Bank to Looped peptides of the protein M of SARS-CoV Urbani” value is recorded as 0.6, the “Binding of Control serum Blood-bank to linear peptides of the protein M of SARS-CoV Urbani” value was found to be 0.9, the “Binding of Control serum LUMC to linear peptides of the protein M of SARS-CoV Urbani” value came to 0.5 and the “Binding of Control serum LUMC to looped peptides of the protein M of SARS-CoV Urbani” value was 0.8. Besides, in assay [3], the “Rabbit serum linear peptides” value is given as 0.6 and the “Rabbit serum looped peptides” value was 0.6.

The values are drawn from patent US20070128217A1 (priority 2003, published 2007).
